Results reported in patent US11130769B2 (Prelude Therapeutics Incorporated, priority 2018, dated 2021).
Where two headings read alike, the source gives them in different places.

Assays:
H929 cells = test: Cell viability assay (H929 10 FBS); assay type: cell-based; settings: Homo sapiens, NCI-H929, 24 hours, read-out: H929_10FBS IC50
Procedure, shortened: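 H929 cells, 4000/well, in RPMI 1640 with 10% FBS, sodium pyruvate, HEPES and glucose were exposed to compound 24 h at 37 °C. Viability read as luminescence after 30-60 min at RT with CellTiter-Glo or ATPlite 1 Step.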

MCL-1 = MCL-1 (Homo sapiens (Human), UniProt Q07820); test: Cell free Mcl-1:Bim affinity assay (fluorescence polarization competition); assay type: binding; settings: 15 nM MCL-1, 5 nM FITC-Bim, 1 hour at room temperature, read-out: BIM_Ki
Procedure, shortened: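 Compounds competed with FITC-labelled Bim peptide (5 nM) for MCL-1 (15 nM) in HEPES/NaCl buffer with 1% DMSO, 1 h at room temperature. Fluorescence polarization (535 nm emission) gave % inhibition versus DMSO and positive controls; IC50 from 10-point curves, converted to Ki by the Nikolovska-Coleska equation.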

Sequence of MCL-1 (Q07820 whole entry): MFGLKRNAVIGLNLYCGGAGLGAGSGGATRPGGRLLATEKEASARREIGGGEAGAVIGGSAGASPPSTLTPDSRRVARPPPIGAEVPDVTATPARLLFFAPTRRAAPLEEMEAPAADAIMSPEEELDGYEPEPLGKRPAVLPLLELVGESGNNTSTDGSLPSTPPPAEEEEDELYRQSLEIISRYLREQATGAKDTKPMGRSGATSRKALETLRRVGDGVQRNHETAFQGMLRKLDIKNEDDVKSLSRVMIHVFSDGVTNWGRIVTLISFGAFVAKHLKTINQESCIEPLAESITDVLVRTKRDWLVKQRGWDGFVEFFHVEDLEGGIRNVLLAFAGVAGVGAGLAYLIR

Row | Structure (SMILES) | IC50 (H929 cells) | Ki (MCL-1; class symbols) | Ki (MCL-1; numeric values)
1 | CN(C)C(=O)O[C@@H]1/C=C/CN(C)C(C)(C)C(=O)NS(=O)(=O)c2ccc3c(c2)N(C[C@@H]2CC[C@H]21)C[C@@]1(CCCc2cc(Cl)ccc21)CO3 [Example 200, [(3R,6R,7R,8E,22S)-6′-Chloro-11,12,12-trimethyl-13,15,15-trioxo-spiro[20-oxa-15-thia-1,11,14-triazatetracyclo[14.7.2.03,6.019,24]pentacosa-8,16,18,24-tetraene-22,1′-tetralin]-7-yl] N,N-dimethylcarbamate] | < 500 nM | 1 to 100 nM | –
2 | CON(C)C(=O)O[C@H]1/C=C/COC(C)(C)C(=O)NS(=O)(=O)c2ccc3c(c2)N(C[C@@H]2CC[C@H]21)C[C@@]1(CCOc2cc(Cl)ccc21)CO3 [Example 306, [(3R,6R,7S,8E,22S)-7′-Chloro-12,12-dimethyl-13,15,15-trioxo-spiro[11,20-dioxa-15-thia-1,14-diazatetracyclo[14.7.2.03,6.019,24]pentacosa-8,16,18,24-tetraene-22,4′-chromane]-7-yl] N-methoxy-N-methyl-carbamate] | < 500 nM | < 1 nM | –
3 | CO[C@@H]1/C=C/COC2(CCC2)C(=O)NS(=O)(=O)c2ccc3c(c2)N(C[C@@H]2CC[C@H]21)C[C@@]1(CCCc2cc(Cl)ccc21)CO3 [Example 31, (3R,6R,7R,8E,22S)-6′-Chloro-7-methoxy-12,12-(1,3-propylene)-15,15-dioxo-spiro[11,20-dioxa-15-thia-1,14-diazatetracyclo[14.7.2.03,6.019,24]pentacosa[8,16(25),17,19(24)]tetraene-22,1′-tetralin]-13-one] | > 1000 nM | 1 to 100 nM | –
4 | CC1(C)OC/C=C/[C@H](OC(=O)N[C@H]2CCOC2)[C@@H]2CC[C@H]2CN2C[C@@]3(CCCc4cc(Cl)ccc43)COc3ccc(cc32)S(=O)(=O)NC1=O [Example 61, [(3R,6R,7S,8E,22S)-6′-Chloro-12,12-dimethyl-13,15,15-trioxo-spiro[11,20-dioxa-15-thia-1,14-diazatetracyclo[14.7.2.03,6.019,24]pentacosa-8,16,18,24-tetraene-22,1′-tetralin]-7-yl] N-[(3S)-tetrahydrofuran-3-yl]carbamate] | < 500 nM | < 1 nM | –
5 | CC(=O)NS(=O)(=O)c1ccc2c(c1)N(CC1CCC1)C[C@@]1(CCCc3cc(Cl)ccc31)CO2 [Example 12, N-[(3S)-6′-Chloro-5-(cyclobutylmethyl)spiro[2,4-dihydro-1,5-benzoxazepine-3,1′-tetralin]-7-yl]sulfonylacetamide] | > 1000 nM | – | 15.8 nM
6 | CO[C@@H]1/C=C/CN[C@H](C)C(=O)NS(=O)(=O)c2ccc3c(c2)N(C[C@@H]2CC[C@H]21)C[C@@]1(CCCc2cc(Cl)ccc21)CO3 [Example 121, (3R,6R,7R,8E,12R,22S)-6′-Chloro-7-methoxy-12-methyl-15,15-dioxo-spiro[20-oxa-15-thia-1,11,14-triazatetracyclo[14.7.2.03,6.019,24]pentacosa-8,16(25),17,19(24)-tetraene-22,1′-tetralin]-13-one] | > 1000 nM | 1 to 100 nM | –
7 | CC1(C)OC/C=C/[C@H](OC(=O)NCCN2CCCCC2)[C@@H]2CC[C@H]2CN2C[C@@]3(CCCc4cc(Cl)ccc43)COc3ccc(cc32)S(=O)(=O)NC1=O [Example 193, [(3R,6R,7S,8E,22S)-6′-Chloro-12,12-dimethyl-13,15,15-trioxo-spiro[11,20-dioxa-15-thia-1,14-diazatetracyclo[14.7.2.03,6.019,24]pentacosa-8,16,18,24-tetraene-22,1′-tetralin]-7-yl] N-[2-(1-piperidyl)ethyl]carbamate] | < 500 nM | 1 to 100 nM | –
8 | COC[C@H]1CCCN1C(=O)O[C@H]1/C=C/COC(C)(C)C(=O)NS(=O)(=O)c2ccc3c(c2)N(C[C@@H]2CC[C@H]21)C[C@@]1(CCCc2cc(Cl)ccc21)CO3 [Example 161, [(3R,6R,7S,8E,22S)-6′-Chloro-12,12-dimethyl-13,15,15-trioxo-spiro[11,20-dioxa-15-thia-1,14-diazatetracyclo[14.7.2.03,6.019,24]pentacosa-8,16,18,24-tetraene-22,1′-tetralin]-7-yl] (2R)-2-(methoxymethyl)pyrrolidine-1-carboxylate] | < 1000 nM | < 1 nM | –
9 | CO[C@@H]1/C=C/CCC2(CCC2)C(=O)NS(=O)(=O)c2ccc3c(c2)N(C[C@@H]2CC[C@H]21)C[C@@]1(CCCc2cc(Cl)ccc21)CO3 [Example 86, (3R,6R,7R,8E,22S)-6′-Chloro-7-methoxy-12,12-(1,3-propylene)-15,15-dioxo-spiro[[20]oxa-15-thia-1,14-diazatetracyclo[14.7.2.03,6.019,24]pentacosa[8,16(25),17,19(24)]tetraene-22,1′-tetralin]-13-one] | > 1000 nM | 1 to 100 nM | –
10 | CN(C)C(=O)O[C@H]1/C=C/CNC(C)(C)C(=O)NS(=O)(=O)c2ccc3c(c2)N(C[C@@H]2CC[C@H]21)C[C@@]1(CCCc2cc(Cl)ccc21)CO3 [Example 209, [(3R,6R,7S,8E,22S)-6′-Chloro-12,12-dimethyl-13,15,15-trioxo-spiro[20-oxa-15-thia-1,11,14-triazatetracyclo[14.7.2.03,6.019,24]pentacosa-8,16,18,24-tetraene-22,1′-tetralin]-7-yl] N,N-dimethylcarbamate] | < 500 nM | < 1 nM | –
11 | CC1(C)OC/C=C/[C@@H](OCCN2CCOCC2)[C@@H]2CC[C@H]2CN2C[C@@]3(CCCc4cc(Cl)ccc43)COc3ccc(cc32)S(=O)(=O)NC1=O [Example 271, (3R,6R,7R,8E,22S)-6′-Chloro-12,12-dimethyl-7-(2-morpholinoethoxy)-15,15-dioxo-spiro[11,20-dioxa-15-thia-1,14-diazatetracyclo[14.7.2.03,6.019,24]pentacosa-8,16,18,24-tetraene-22,1′-tetralin]-13-one] | < 500 nM | < 1 nM | –
12 | CCN1C/C=C/[C@H](OC(=O)N(C)C)[C@@H]2CC[C@H]2CN2C[C@@]3(CCCc4cc(Cl)ccc43)COc3ccc(cc32)S(=O)(=O)NC(=O)C1(C)C [Example 210, [(3R,6R,7S,8E,22S)-6′-Chloro-11-ethyl-12,12-dimethyl-13,15,15-trioxo-spiro[20-oxa-15-thia-1,11,14-triazatetracyclo[14.7.2.03,6.019,24]pentacosa-8,16,18,24-tetraene-22,1′-tetralin]-7-yl] N,N-dimethylcarbamate] | < 500 nM | < 1 nM | –
13 | CNCCNC(=O)O[C@H]1/C=C/COC(C)(C)C(=O)NS(=O)(=O)c2ccc3c(c2)N(C[C@@H]2CC[C@H]21)C[C@@]1(CCCc2cc(Cl)ccc21)CO3 [Example 157, [(3R,6R,7S,8E,22S)-6′-Chloro-12,12-dimethyl-13,15,15-trioxo-spiro[11,20-dioxa-15-thia-1,14-diazatetracyclo[14.7.2.03,6.019,24]pentacosa-8,16,18,24-tetraene-22,1′-tetralin]-7-yl] N-[2-(methylamino)ethyl]carbamate] | < 500 nM | < 1 nM | –
14 | CO[C@H]1/C=C/COC2(CC2)C(=O)NS(=O)(=O)c2ccc3c(c2)N(C[C@@H]2CC[C@H]21)C[C@@]1(CCCc2cc(Cl)ccc21)CO3 [Example 28, (3R,6R,7S,8E,22S)-6′-Chloro-7-methoxy-12,12-ethylene-15,15-dioxo-spiro[[11,20]dioxa-15-thia-1,14-diazatetracyclo[14.7.2.03,6.019,24]pentacosa[8,16(25),17,19(24)]tetraene-22,1′-tetralin]-13-one] | > 1000 nM | < 1 nM | –
15 | CC1(C)OC/C=C/[C@H](OCC(=O)N2CC(F)(F)C2)[C@@H]2CC[C@H]2CN2C[C@@]3(CCCc4cc(Cl)ccc43)COc3ccc(cc32)S(=O)(=O)NC1=O [Example 278, (3R,6R,7S,8E,22S)-6′-Chloro-7-[2-(3,3-difluoroazetidin-1-yl)-2-oxo-ethoxy]-12,12-dimethyl-15,15-dioxo-spiro[11,20-dioxa-15-thia-1,14-diazatetracyclo[14.7.2.03,6.019,24]pentacosa-8,16,18,24-tetraene-22,1′-tetralin]-13-one] | < 500 nM | < 1 nM | –
16 | CNC(=O)O[C@H]1/C=C/CN(C)C(C)(C)C(=O)NS(=O)(=O)c2ccc3c(c2)N(C[C@@H]2CC[C@H]21)C[C@@]1(CCCc2cc(Cl)ccc21)CO3 [Example 203, [(3R,6R,7S,8E,22S)-6′-Chloro-11,12,12-trimethyl-13,15,15-trioxo-spiro[20-oxa-15-thia-1,11,14-triazatetracyclo[14.7.2.03,6.019,24]pentacosa-8,16,18,24-tetraene-22,1′-tetralin]-7-yl] N-methylcarbamate] | < 500 nM | < 1 nM | –
17 | CCN1C/C=C/[C@H](OC(=O)N2CCN(CCOC)CC2)[C@@H]2CC[C@H]2CN2C[C@@]3(CCCc4cc(Cl)ccc43)COc3ccc(cc32)S(=O)(=O)NC(=O)C1(C)C [Example 225, [(3R,6R,7S,8E,22S)-6′-Chloro-11-ethyl-12,12-dimethyl-13,15,15-trioxo-spiro[20-oxa-15-thia-1,11,14-triazatetracyclo[14.7.2.03,6.019,24]pentacosa-8,16,18,24-tetraene-22,1′-tetralin]-7-yl] 4-(2-methoxyethyl)piperazine-1-carboxylate] | < 500 nM | 1 to 100 nM | –
18 | CC(=O)NS(=O)(=O)c1ccc2c(c1)N(CC1CCC1)CC1(CCCc3cc(Cl)ccc31)CO2 (stereo not drawn) [Example 1, N-[6′-Chloro-5-(cyclobutylmethyl)spiro[2,4-dihydro-1,5-benzoxazepine-3,1′-tetralin]-7-yl]sulfonylacetamide] | > 1000 nM | – | 45.6 nM
